Tests used:
[1] = for Stabilized Chlorine Dioxide Concentration, 0 Days / Stabilized Chlorine Dioxide Concentration, 7 Days / Stabilized Chlorine Dioxide Concentration, 14 Days: ingredient added at ppm shown (100) to brimonidine composition; for Stabilization of chlorine dioxide by the excipient (in words): summary of Table 1
Procedure: Each of the excipients was added, in the amounts shown, to a proprietary composition comprising brimonidine as a therapeutically active agent.

[2] = chlorine dioxide to ClO2-; permanganate to manganese dioxide; cited from earlier work

SMILES	Stabilized Chlorine Dioxide Concentration, 0 Days [1] [ppm]	Stabilized Chlorine Dioxide Concentration, 7 Days [1] [ppm]	Stabilized Chlorine Dioxide Concentration, 14 Days [1] [ppm]	Standard reduction potential [2] [V]	Stabilization of chlorine dioxide by the excipient (in words) [1]
O=C[O-].[Na+] [Sodium Formate]	42	40	36	–	–
[O][Cl+][O-] [chlorine dioxide]	–	–	–	1.07	–
O=C([O-])/C(O)=C(\O)C(=O)[O-].[Na+].[Na+] [Sodium Dihydroxyfurmarate]	37	13	0	–	–
CC(=O)C(=O)[O-].[Na+] [Sodium Pyruvate]	–	–	–	–	ineffective
O=C(O)CN(CCN(CC(=O)O)CC(=O)O)CC(=O)O [EDTA]	44	2	0	–	do not stabilize the chlorine dioxide
O=C([O-])C(=O)[O-].[Na+].[Na+] [Sodium Oxalate]	39	38	35	–	ineffective
CC(O)C(=O)[O-].[Na+] (centres unmarked) [Sodium Lactate]	45	40	37	–	–
NCCN [Ethylene diamine]	–	–	–	–	do not stabilize the chlorine dioxide
